Read-outs that look alike come from different tables or passages of the source.
Legend:
Type in all cases: physicochemical
[1] = ROTAP sieve particle size distribution (% retained); conditions: for Particle Size Distribution (% Retained) 12: 12 mesh screen; for Particle Size Distribution (% Retained) 20: 20 mesh screen; for Particle Size Distribution (% Retained) 40: 40 mesh screen; for Particle Size Distribution (% Retained) 60: 60 mesh screen; for Particle Size Distribution (% Retained) 80: 80 mesh screen; for Particle Size Distribution (% Retained) 100: 100 mesh screen; for Particle Size Distribution (% Retained) 200: 200 mesh screen; for Particle Size Distribution (% Retained) Pan: receiving pan
Method: (§1) All particle size (PS) analyses were conducted using a ROTAP Particle Size Analyzer and a MALVERN MASTERSIZER 2000, except as otherwise indicated. All particle size data were measured in microns and analyzed via the MALVERN MASTERSIZER 2000.
Particle Size: During the granulation process, an approximately 300 g sample is taken from material of the finished product drum starting with the first drum and every sixth drum thereafter, including the last drum (i.e. drum #1, 7, 13, 19 etc.). […] Each fraction was weighed and percent retained was calculated.

[2] = MALVERN MASTERSIZER 2000 particle size (d10, d50, d90); conditions: for d50: after U5 COMIL, 0.032″ round hole screen
Method: as §1

[3] = Moisture, loss on drying (LOD), halogen moisture balance; conditions: final / as dried material
Excerpt: Unless otherwise indicated, the following equipment was used in Examples 1a and 1b: R&D TURBULIZER High Shear Granulator, Model TCB; Large ACCURATE Powder Feeder; AEROMATIC Fluid Bed Dryer, Model S-2; ADMIX High Shear Mixer; SWECO Vibratory Sieve, 18″; STURTEVANT MICRONIZER Jet Mill, Model 45DM; Halogen Moisture Balance (to determine moisture levels); MALVERN MASTERSIZER 2000 (particle size analyzer); ROTAP particle size analyzer; and a Tapped Density Tester.
A sample of lactitol monohydrate (DANISCO) was evaluated for particle size moisture (loss on drying (LOD)), bulk density, and tapped density. […] A photo micrograph of the material was also generated (FIG. 2).
At approximately 125 g/min, the expected moisture level would be approximately 3.4%. However, at this initial binder flow rate, the granulation exiting the mixer felt too dry and was not as granular as desired. […] The final setting was 37 Hz or approximately 140 g/min. At this binder flow rate the expected granulation moisture level would be approximately 3.8%. No additional adjustments were made to the operating conditions over the remainder of the run. The final wet granulation moisture was approximately 2%. In order to improve the accuracy of the LOD moisture results the moisture balance test conditions were altered.
The expected moisture level at this setting would be approximately 4%. […]

Bulk density = experiment: Bulk density
Method: (§2) Tapped density of the granulates of the present invention is typically at least about 0.6 g/mL, at least about 0.75 g/mL, at least about 0.80 g/mL, at least about 0.85 g/mL, or at least about 0.90 g/mL. Overall, the tapped density of the granulates of the present invention generally ranges from about 0.6 g/mL to about 1.0 g/mL, from about 0.7 g/mL to about 0.95 g/mL, or from about 0.8 g/mL to about 0.9 g/mL (e.g., about 0.85 g/mL). Bulk and tapped density as reported herein are determined by USP <616>, but it should be understood that other methods known in the art may be also be utilized to determine the tapped densities of compositions of the present invention.
(§3) Tare a 250 mL graduated glass cylinder. Fill with 100 grams of sample. Reweigh to determine weight. Record Initial Volume. The bulk density is the weight in grams divided by the volume (mL). Tap 1000 times by the automated tapping device. Read final volume. The tapped density is the weight in grams divided by the tapped volume (mL).

Tapped density = experiment: Tapped density
Method: as §2, §3

[4] = Moisture content by Karl Fischer (KF)
Method: As noted, lactitol exists in the monohydrate, dihydrate, trihydrate, and hexahydrate forms. Lactitol monohydrate is the preferred form of lactitol for use. Lactitol monohydrate is defined by the EU-NP and USP-NF as having moisture content of between 4.5 wt % and 5.5 wt %. As used herein, the term “moisture content” refers to the total moisture content of a composition, including both free and bound water. Moisture contents reported here are determined by the Karl-Fischer (KF) method, but may also be determined by other suitable methods known in the art.
During the weighing of the ingredients for the binder solution and during the set up for granulation, an approximately 100 g sample representing each raw material is taken and placed into an appropriately labeled container. An approximately 0.3 gram sample is dispersed in methanol and test using a Karl Fischer moisture analyzer with HYDRANAL Composite 5 titrant using a 60 sec extraction time. Percent moisture was reported.
For each Qualification lot, at the beginning and middle of each shift samples were pulled using a sample thief from three locations within the tub after granulation but before drying. These samples were tested for moisture as described above.
Moisture content was also tested using the same procedure after the second drying step.

[5] = HANSON FLODEX powder flowability (viscosity)
Excerpt: Samples were also subjected to flowability testing using a HANSON FLODEX Powder Flowability tester. The basis for the method is the powders ability to fall freely through a hole in a plate. The diameter of the smallest hole through which the powder passes is considered the flowability index. The flowability index (radius of hole size in cm) along with the bulk density of the material tested are then used to determine the viscosity (internal friction coefficient) of the powder. Lower powder viscosity indicates better flowability.
Samples of the finished lactitol granulations produced during execution of the commercial optimization protocol were also evaluated for flow using the HANSON Intrinsic Flowability Test. During the test, the smallest hole (in millimeters) that the product will flow through is determined in the FLODEX apparatus. Using this information and the bulk density of each powder (as determined in a 250 mL graduated cylinder) the coefficient of friction or viscosity (K) was calculated. The viscosity K (in poises) is equal to 490 (½ the acceleration of gravity) times the radius of the hole in centimeters times the bulk density of the sample. The result K is then multiplied by 100 to express the viscosity in centipoises.

| Structure (SMILES) | Particle Size Distribution (% Retained) 12 [1] | Particle Size Distribution (% Retained) 20 [1] | Particle Size Distribution (% Retained) 40 [1] | Particle Size Distribution (% Retained) 60 [1] | Particle Size Distribution (% Retained) 80 [1] | Particle Size Distribution (% Retained) 100 [1] | Particle Size Distribution (% Retained) 200 [1] | Particle Size Distribution (% Retained) Pan [1] | PS d10 [2] | PS d50 [2] | PS d90 [2] | Moisture NMT 3.0% [3] | Bulk Density (Bulk density) | Tapped Density (Tapped density) | other results |
| --- | --- | --- | --- | --- | --- | --- | --- | --- | --- | --- | --- | --- | --- | --- | --- |
| O.OC[C@@H](O)[C@@H](O[C@@H]1O[C@H](CO)[C@H](O)[C@H](O)[C@H]1O)[C@H](O)[C@@H](O)CO [Raw Lactitol B] | 0.0% | 0.3% | 64.4% | 29.9% | 3.6% | 0.7% | 0.8% | 0.3% | 94.2 μ | 365.3 μ | 720.3 μ | 1.28% | 0.677 g/mL | 0.754 g/mL | – |
| OC[C@@H](O)[C@@H](O[C@H]1O[C@H](CO)[C@H](O)[C@H](O)[C@H]1O)[C@H](O)[C@@H](O)CO [Raw Lactitol, 4-O-α-D-Galactopyranosyl-D-glucitol] | 0.0% | 10.0% | 57.0% | 26.3% | 4.0% | 0.9% | 1.3% | 0.5% | 112.4 μ | 426.1 μ | 922.8 μ | 0.61% | 0.798 g/mL | 0.925 g/mL | Particle Size Span [2]: 1.9; d50 (mean particle size by volume distribution) [2]: 426 microns; d50 ([2]; round bar impeller, 1500 rpm): 235 microns; d50 ([2]; round bar impeller, 1800 rpm): 196 microns; d50 ([2]; square bar impeller, 4200 rpm): approximately 115 microns; KF moisture [4]: 4.93%; Tapped Density (Tapped density; listed as Raw Lactitol A): 0.925 g/mL; Tapped Density (Tapped density; listed as lactitol monohydrate): 0.93 g/mL; Flow Viscosity [5]: ~10 CPS (×1000); viscosity (flowability) [5]: approximately 9,776 cps |
